For this assay, the target named is T1, serotonin (5-HT) reuptake (Rattus norvegicus, UniProt P31652).
T1 construct: synaptosomes are freshly isolated from areas of the rat brain; from tissue; host or cells: rat brain synaptosomes (P2 fraction)
The assay is described as follows: Inhibition of serotonin (5HT) reuptake in synaptosomes from rat brain. It counts as biochemical. The conditions noted are these: test concentration of 10 μM; read-out: 5-HT (inhibition of reuptake of serotonin, % inhibition). In short, it runs like this:
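Compounds screened at 10 μM and reported as percent inhibition of serotonin uptake. Uptake measured in a freshly prepared P2 synaptosomal fraction from rat brain.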

T1 sequence (P31652 whole entry): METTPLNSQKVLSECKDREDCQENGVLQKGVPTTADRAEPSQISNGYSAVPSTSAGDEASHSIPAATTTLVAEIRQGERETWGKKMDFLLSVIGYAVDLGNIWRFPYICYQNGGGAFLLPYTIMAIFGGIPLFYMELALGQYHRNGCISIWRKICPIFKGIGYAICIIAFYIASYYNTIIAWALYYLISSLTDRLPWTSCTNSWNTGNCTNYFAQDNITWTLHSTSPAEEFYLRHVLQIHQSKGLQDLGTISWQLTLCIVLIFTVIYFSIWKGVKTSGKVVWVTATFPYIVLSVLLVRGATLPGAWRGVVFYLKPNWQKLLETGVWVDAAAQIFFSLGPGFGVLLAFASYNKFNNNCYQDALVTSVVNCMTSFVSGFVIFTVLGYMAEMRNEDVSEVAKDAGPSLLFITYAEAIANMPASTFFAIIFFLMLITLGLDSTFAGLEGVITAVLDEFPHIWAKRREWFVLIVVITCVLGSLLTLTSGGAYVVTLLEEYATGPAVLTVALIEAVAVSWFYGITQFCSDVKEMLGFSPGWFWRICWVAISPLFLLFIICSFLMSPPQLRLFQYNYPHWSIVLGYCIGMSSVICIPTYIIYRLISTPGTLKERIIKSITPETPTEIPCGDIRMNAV

As for `COc1cc(C)c(S(=O)(=O)N2CCC(CCOCC(=O)NC3CCC(C(c4ccc(F)cc4)N(C)C)CC3)CC2)c(C)c1C` (centres unmarked) [Example 178, N-(4-((dimethylamino)(4-fluorophenyl)methyl)cyclohexyl)-2-(2-(1-(4-methoxy-2,3,6-trimethylphenylsulfonyl)piperidin-4-yl)ethoxy)acetamide], the inhibition (commonly the change of the read-out against control, counted positive when it falls) at 10 µM was found to be 94%. Regarding `COc1ccc(S(=O)(=O)N2CCCCC2COCC(=O)NCC2CCC(C(c3cccc(F)c3)N(C)C)CC2)cc1` (centres unmarked) [Example 179, N-((4-((dimethylamino)(3-fluorophenyl)methyl)cyclohexyl)methyl)-2-((1-(4-methoxyphenylsulfonyl)piperidin-2-yl)methoxy)acetamide], the inhibition at 10 µM turned out to be 92%. As to `COc1ccc(S(=O)(=O)N2CCCCC2COCC(=O)NCCC2CCC(C(c3cccc(F)c3)N(C)C)CC2)cc1` (centres unmarked) [Example 180, N-(2-(4-((dimethylamino)(3-fluorophenyl)methyl)cyclohexyl)ethyl)-2-((1-(4-methoxyphenylsulfonyl)piperidin-2-yl)methoxy)acetamide], the inhibition at 10 µM is 93%. `COc1ccc(S(=O)(=O)N2CCCC2COCC(=O)NC2CCC(C(c3ccccc3)N(C)C)CC2)cc1` (centres unmarked) [Example 182, N-(4-((dimethylamino)(phenyl)methyl)cyclohexyl)-2-((1-(4-methoxyphenylsulfonyl)pyrrolidin-2-yl)methoxy)acetamide]: the inhibition at 10 µM is 85%. For `COc1cc(C)c(S(=O)(=O)N(C)CCOCC(=O)NCCC2CCC(C(c3cccc(F)c3)N(C)C)CC2)c(C)c1C` (centres unmarked) [Example 183, N-(2-(4-((dimethylamino)(3-fluorophenyl)methyl)cyclohexyl)ethyl)-2-(2-(4-methoxy-N,2,3,6-tetramethylphenylsulfonamido)ethoxy)acetamide], the inhibition at 10 µM came to 93%. Turning to `COc1ccc(S(=O)(=O)N2CCC(OCC(=O)NCC3CCC(C(c4cccc(F)c4)N(C)C)CC3)C2)cc1OC` (centres unmarked) [Example 184, 2-(1-(3,4-dimethoxyphenylsulfonyl)pyrrolidin-3-yloxy)-N-((4-((dimethylamino)(3-fluorophenyl)methyl)cyclohexyl)methyl)acetamide], the inhibition at 10 µM was 88%. Then `Cc1ccc(S(=O)(=O)N2CCC(OCC(=O)NCC3CCC(C(c4cccc(F)c4)N(C)C)CC3)C2)cc1` (centres unmarked) [Example 185, N-((4-((dimethylamino)(3-fluorophenyl)methyl)cyclohexyl)methyl)-2-(1-tosylpyrrolidin-3-yloxy)acetamide], with 102%; and `CN(C)C(c1cccc(F)c1)C1CCC(CCNC(=O)COCCN(C)S(=O)(=O)c2ccc(Cl)cc2)CC1` (centres unmarked) [Example 186, 2-(2-(4-chloro-N-methylphenylsulfonamido)ethoxy)-N-(2-(4-((dimethylamino)(3-fluorophenyl)methyl)cyclohexyl)ethyl)acetamide], with 88%.

Consider `CN(C)C(c1cccc(F)c1)C1CCC(CNC(=O)COCCN(C)S(=O)(=O)c2c(Cl)cc(Cl)cc2Cl)CC1` (centres unmarked) [Example 188, N-((4-((dimethylamino)(3-fluorophenyl)methyl)cyclohexyl)methyl)-2-(2-(2,4,6-trichloro-N-methylphenylsulfonamido)ethoxy)acetamide], for which the inhibition at 10 µM is 98%. Consider `COc1cc(C)c(S(=O)(=O)N2CCC(OCC(=O)NC3CCC(C(c4cccc(F)c4)N(C)C)CC3)C2)c(C)c1C` (centres unmarked) [Example 189, N-(4-((dimethylamino)(3-fluorophenyl)methyl)cyclohexyl)-2-(1-(4-methoxy-2,3,6-trimethylphenylsulfonyl)pyrrolidin-3-yloxy)acetamide], for which the inhibition at 10 µM was 96%. Turning to `COc1ccc(S(=O)(=O)N2Cc3ccccc3CC2COCC(=O)NCCC2CCC(C(c3cccc(F)c3)N(C)C)CC2)cc1` (centres unmarked) [Example 190, N-(2-(4-((dimethylamino) (3-fluorophenyl)methyl)cyclohexyl)ethyl)-2-((2-(4-methoxyphenylsulfonyl)-1,2,3,4-tetrahydroisoquinolin-3-yl)methoxy)acetamide], the inhibition at 10 µM came out at 79%.

Consider `COc1ccc(S(=O)(=O)N2CCCCC2COCC(=O)NCCC2CCC(C(c3cccc(F)c3)N(C)C)CC2)cc1OC` (centres unmarked) [Example 191, 2-((1-(3,4-dimethoxyphenylsulfonyl)piperidin-2-yl)methoxy)-N-(2-(4-((dimethylamino)(3-fluorophenyl)methyl)cyclohexyl)ethyl)acetamide], for which the inhibition at 10 µM came out at 89%. Regarding `CN(C)C(c1cccc(F)c1)C1CCC(CCNC(=O)COCCN(C)S(=O)(=O)c2cccc(C(F)(F)F)c2)CC1` (centres unmarked) [Example 192, N-(2-(4-((dimethylamino)(3-fluorophenyl)methyl)cyclohexyl)ethyl)-2-(2-(N-methyl-3-(trifluoromethyl)phenylsulfonamido)ethoxy)acetamide], the inhibition at 10 µM is 94%. On to `COc1cc(C)c(S(=O)(=O)N(CCOCC(=O)NC2CCC(C(c3ccccc3)N(C)C)CC2)Cc2ccccc2)c(C)c1C` (centres unmarked) [Example 193, 2-(2-(N-benzyl-4-methoxy-2,3,6-trimethylphenylsulfonamido)ethoxy)-N-(4-((dimethylamino) (phenyl)methyl)cyclohexyl)acetamide], for which the inhibition at 10 µM turned out to be 92%.

`CN(C)C(c1cccs1)C1CCC(NC(=O)COC2CCN(S(=O)(=O)c3ccccc3)C2)CC1` (centres unmarked) [Example 194, N-(4-((dimethylamino)(thiophen-2-yl)methyl)cyclohexyl)-2-(1-(phenylsulfonyl)pyrrolidin-3-yloxy)acetamide]: the inhibition at 10 µM was determined as 86%.

With `CN(C)C(c1ccccc1)C1CCC(CNC(=O)COC2CCN(S(=O)(=O)c3ccccc3)C2)CC1` (centres unmarked) [Example 195, N-((4-((dimethylamino)(phenyl)methyl)cyclohexyl)methyl)-2-(1-(phenylsulfonyl)pyrrolidin-3-yloxy)acetamide], the inhibition at 10 µM came out at 101%. In the case of `CN(C)C(c1cccc(F)c1)C1CCC(NC(=O)COCCN(C)S(=O)(=O)c2ccc(Cl)cc2)CC1` (centres unmarked) [Example 196, 2-(2-(4-chloro-N-methylphenylsulfonamido)ethoxy)-N-(4-((dimethylamino)(3-fluorophenyl)methyl)cyclohexyl)acetamide], the inhibition at 10 µM came out at 92%.

Take `COc1cc(C)c(S(=O)(=O)N(C)CCOCC(=O)NCCC2CCC(C(c3cccc(F)c3)N(C)C)CC2)c(C)c1` (centres unmarked) [Example 197, N-(2-(4-((dimethylamino)(3-fluorophenyl)methyl)cyclohexyl)ethyl)-2-(2-(4-methoxy-N,2,6-trimethylphenylsulfonamido)ethoxy)acetamide]: the inhibition at 10 µM came out at 85%. With `COc1cc(C)c(S(=O)(=O)N2CCC(OCC(=O)NCCC3CCC(C(c4cccs4)N(C)C)CC3)C2)c(C)c1` (centres unmarked) [Example 199, N-(2-(4-((dimethylamino)(thiophen-2-yl)methyl)cyclohexyl)ethyl)-2-(1-(4-methoxy-2,6-dimethylphenylsulfonyl)pyrrolidin-3-yloxy)acetamide], the inhibition at 10 µM amounted to 96%.

As for `COc1cc(C)c(S(=O)(=O)N2CCN(CCOCC(=O)NCCC3CCC(C(c4cccc(F)c4)N(C)C)CC3)CC2)c(C)c1C` (centres unmarked) [Example 200, N-(2-(4-((dimethylamino)(3-fluorophenyl)methyl)cyclohexyl)ethyl)-2-(2-(4-(4-methoxy-2,3,6-trimethylphenylsulfonyl)piperazin-1-yl)ethoxy)acetamide], the inhibition at 10 µM came out at 95%.

Source of the values: patent US8106055B2, “Substituted amide compounds” (Gruenenthal GmbH, priority 2007, dated 2012).
